{"source": "patent US20060167098A1", "about": "“Method for the treatment of diseases linked to an accumulation of triglycerides and cholesterol” (Institut National De La Sante ET De LA Recherche Medicale …, priority 2003, published 2006)", "format_in_all_cases": "in vivo", "key": {"[1]": {"assay": "Plasma lipids in ob/ob mice, 6 weeks, 15 hours overnight fast", "details": "100 mg/kg/day 6 weeks, fasted 15 hours", "description": "Plasma lipids (triglycerides, total cholesterol, phospholipids) were measured on an automatic analyser (Hitachi 717®). The commercial kits used to assess triglycerides, total cholesterol and phospholipids on this analyser were all from bioMérieux (references 61238, 61219 and 61491, respectively). Plasma non esterified fatty acids (NEFA) were assessed by using a commercial kit (Wako, reference 994-75409). Hepatic and plasma lipids were performed at the end of six weeks of treatment in animals that have been fasted for 48 hours. Triglycerides and HDL-cholesterol were also assessed after 2 months (in the fed state) or after 4 months of treatment (after an overnight fast).\n(§1) Plasma HDL-cholesterol and alanine aminotransferase (ALT) were measured on an automatic analyser (Olympus AU400®) with commercial kits (Olympus Diagnostica GmbH, references OSR6187 and OSR6107, respectively).\nIn a second series of experiments, plasma lipids were assessed in ob/ob mice fed with a standard diet and receiving or not of 100 mg/kg/day of β-aminoisobutyric acid (BAIBA) in the drinking water during 6 weeks, but at the end of the experiment mice were fasted for only 15 hours (i.e. for an overnight fast). Samples of blood were then collected in controls mice (n=4) and in mice treated with BAIBA (n=5) for the assessment of plasma triglycerides, total cholesterol and HDL-cholesterol. In this experiment, BAIBA decreased plasma triglycerides and total cholesterol by 10 and 8%, respectively. Indeed, plasma triglycerides were 1.35±0.07 and 1.22±0.06 mmol/L, respectively in control and treated ob/ob mice, whereas plasma total cholesterol was 6.78±0.51 and 6.24±0.11 mmol/L, respectively in control and treated mice. […] Indeed, HDL-cholesterol was 4.73±0.31 and 4.92±0.24 mmol/L, respectively in control and treated mice."}, "[2]": {"assay": "Liver histology, liver triglycerides and ALT in ob/ob mice treated for 4 months, not fasted", "details": "for plasma alanine aminotransferase (ALT): after 4 months", "description": "Total lipids and triglycerides in the liver of animals were assessed according to a procedure partially reported by (Letteron P., Fromenty B., Terris B., Degott C., Pessayre D., 1996, J. Hepatol. 24 : 200-208). Briefly, after killing of the animals, livers were removed and homogenized in sterile water. Hepatic lipids were thus extracted by a mixture of chloroform and methanol (2/1; v/v). After removal of the aqueous phase, the organic phase (chloroform containing the lipids) was evaporated and the amount of lipids was determined by gravimetry. Lipids were subsequently resuspended in isopropanol (final concentration, ca. 10 mg/mL). After removal of the phopholipids by using aluminum hydroxide hydrate, triglycerides were determined colorimetrically by using periodate and the Nash's reagent (containing acetylacetone, ammonium acetate and isopropanol). The reaction generates diacetyldihydrolutidine which is assayed by spectrophotometry (λ=410 nm).\nas §1\nFinally, liver histology was performed according to regular procedure. Steatosis and fibrosis were assessed thanks to the Oil red O and Masson's trichrome stains, respectively, whereas necrosis and inflammation were determined thanks to the HPS (Hematoxylin-Phloxin-Saffron) stain, or the HE (Hematoxylin-Eosin) stain. In one experiment, perisinusoidal fibrosis was assessed with the Sirius Red stain.\nIn a second series of investigations, liver histology was studied in ob/ob mice treated for 4 months with β-aminoisobutyric acid, administered either at the usual dose (100 mg/kg/day) or at a higher dose (500 mg/kg/day). In this experiment, liver examination was performed in mice not submitted to a fasting period before sacrifice. The number of investigated animals were 6, 7 and 8, respectively in the control group and in the groups treated with 100 and 500 mg/kg/day of β-aminoisobutyric acid."}, "[3]": {"assay": "Body fat mass by DEXA in Swiss (lean) mice, standard diet, fasted 48 hours before measurement", "details": "for decrease of body fat mass: 100 mg/kg/day in drinking water, vs control; for decrease of body fat mass / body fat mass: fasted 48 h; for body fat mass: mean±SEM", "excerpt": "Six to 8 weeks old male (Crl:CD-1(ICR)BR) Swiss mice, and six to ten weeks old male RjOrl Swiss mice (i.e. lean mice) weighing 28 and 32 grams were purchased from Dépré (Saint Doulchard, France). Ten to 12 weeks old ob/ob male (C57BL/6-ob) mice (i.e. obese mice), weighing 40 to 44 grams were purchased from Janvier (Le-Genest-St-Isle, France). In one experiment, younger ob/ob mice (5-6 weeks old) weighing 25-26 grams were also studied. In genetically obese ob/ob mice, a mutation on the gene of leptin prevents the normal production of this hormone, thus increasing appetite and decreasing energy consumption (Friedman J. M., Halaas J. L., 1998, Nature 395 : 763-770). […] The animals were acclimatized for one to two weeks before the start of experiments.\nD,L-β-Aminoisobutyric acid (BAIBA) was purchased from Sigma-Aldrich. BAIBA has been administered in drinking water at the dose of 100 mg/kg/day or 500 mg/kg/day for 6 weeks, 2 months or 4 months according to the experiments.\nThe in vivo determination of body fat mass in anesthetized mice has been performed by “DEXA” (Dual Energy X-ray Absorptiometry) (Pietriobelli A., Formica C., Wang Z., Heymsfield S. B., 1996, Am. J. Physiol. 271 (Endocrinol. Metab. 34): E941-E951)). […] It is noteworthy that DEXA also gives for each investigated animal its lean mass that is the total amount of water and proteins (in grams) in the body (excluding the head). Therefore, for a given animal, DEXA allows the determination of the percentage of body fat which is its body fat mass divided by the sum of its body lean and fat masses (fat mass/(lean mass+fat mass)). The “DEXA” apparatus was a Piximus® from Lunar Corporation (Madison, Wis.). Mice were anesthetized thanks to a mixture of xylazine and ketamine.\nProcedure 2: the animals were fasted for 48 hours before DEXA measurements which have been performed 2 weeks (T2) and 6 weeks (T6) after starting the treatment. In this procedure, DEXA measurement before the beginning of treatment has not been performed. Comparisons of the different parameters (e.g. fat mass, body weight) between both groups were performed at T2 and at T6.\nIn a first series of experiments, the effects of 100 mg/kg/day of β-aminoisobutyric acid (BAIBA) on body fat were investigated in Swiss (lean) mice fed with a standard diet (A04 chow) and fasted for 48 hours before DEXA measurements. Mice were 6 to 8 weeks old at the beginning of the experiment. DEXA was performed twice after the initiation of the treatment. In this experiment, BAIBA decreased body fat mass by 31% and 25%, respectively after 2 and 6 weeks of treatment. The results in FIG. 1 indicate that: • after 2 weeks, body fat mass was 2.63±0.23 and 1.80±0.11 grams, respectively in control mice (n=7) and mice receiving BAIBA (n=7); • after 6 weeks, body fat mass was 3.40±0.27 and 2.56±0.32 grams, respectively in control mice and mice receiving BAIBA."}}, "data": [{"compound": "CC(CN)C(=O)O", "note": "(racemic) [BAIBA, D,L-β-Aminoisobutyric acid]", "values": [{"measurement": "HDL-cholesterol", "setting": "[1]", "result": "4.92 ± 0.24", "unit": "mmol/L"}, {"measurement": "decrease of plasma total cholesterol", "setting": "[1]", "result": 8, "unit": "%"}, {"measurement": "decrease of plasma triglycerides", "setting": "[1]", "result": 10, "unit": "%"}, {"measurement": "plasma total cholesterol", "setting": "[1]", "result": "6.24 ± 0.11", "unit": "mmol/L"}, {"measurement": "plasma triglycerides", "setting": "[1]", "result": "1.22 ± 0.06", "unit": "mmol/L"}, {"measurement": "liver triglycerides", "setting": "[2]; 100 mg/kg/day, 4 months", "result": "721±16 mg/g of lipids"}, {"measurement": "mice with inflammation", "setting": "[2]; 100 mg/kg/day, 4 months", "result": 43, "unit": "%"}, {"measurement": "mice with necrosis", "setting": "[2]; 100 mg/kg/day, 4 months", "result": 43, "unit": "%"}, {"measurement": "mice with perisinusoidal fibrosis", "setting": "[2]; 100 mg/kg/day, 4 months", "result": 29, "unit": "%"}, {"measurement": "mice with portal or perivenular fibrosis", "setting": "[2]; 100 mg/kg/day, 4 months", "result": 29, "unit": "%"}, {"measurement": "plasma alanine aminotransferase (ALT)", "setting": "[2]; 100 mg/kg/day", "result": "290±61", "unit": "U/L"}, {"measurement": "liver triglycerides", "setting": "[2]; 500 mg/kg/day, 4 months", "result": "707±29 mg/g of lipids"}, {"measurement": "plasma alanine aminotransferase (ALT)", "setting": "[2]; 500 mg/kg/day", "result": "258±27", "unit": "U/L"}, {"measurement": "extent of steatosis vs control", "setting": "[2]; 100 and 500 mg/kg/day, 4 months, not fasted", "result": "about the same extent"}, {"measurement": "decrease of body fat mass", "setting": "[3]; after 2 weeks", "result": 31, "unit": "%"}, {"measurement": "decrease of body fat mass", "setting": "[3]; after 6 weeks", "result": 25, "unit": "%"}, {"measurement": "body weight vs control mice", "setting": "[3]; 100 mg/kg/day, after 2 and 6 weeks", "result": "not significantly different"}, {"measurement": "body fat mass", "setting": "[3]; 100 mg/kg/day, after 2 weeks", "result": "1.80±0.11", "unit": "grams"}, {"measurement": "body fat mass", "setting": "[3]; 100 mg/kg/day, after 6 weeks", "result": "2.56±0.32", "unit": "grams"}]}]}
